This note sets out measurements from patent publication US6689381B2, “Liposomal benzoquinazoline thymidylate synthase inhibitor formulations” (OSI Pharmaceuticals, Inc., priority 2000, dated 2004).

The subject of experiment [1] is human colon tumor xenograft model (HCT-8, thymidine kinase (TK)-/-). In kind it is in vivo. As to conditions: for durable cures: until termination at day 57. An excerpt:
(§1) Female Nu/Nu mice (18-24 g, 10-14 weeks old) were obtained from Harlan Sprague Dawley, and housed in microisolator filtration racks and maintained with filtered acidified water and sterile lab chow ad libitum. The human colon tumor xenograft model (HCT-8, thymidine kinase (TK)−/−) was obtained from Dr. Youcef M. Rustum (Roswell Park, Buffalo, N.Y.), and established in-house as a useful model for evaluation of thymidylate synthase inhibitors. Animals were allowed to acclimate to their new environment for 1 week prior to tumor cell implantation. Tumors were established by injecting harvested tumor cells in a single subcutaneous site on the flank of the mice in the axillary region. The tumors were grown until approximately 200+/−50 mm^3 in size. The animals were then sorted according to body weight, grouped four animals/cage, and tattooed on the tail for permanent identification. Groups consisting of 8 tumor-bearing mice each were administered weekly doses of experimental agents by IV bolus injection through the tail vein. Tumor volumes were determined with vernier caliper measurements taken at right angles using the formula, (L×W^2/2) and body weights, were collected twice weekly. Data was plotted as % change in body weight vs. time in days, and % tumor volume increase vs. days.
(§2) T=(mean) time in days for treated group to reach cutoff size (2 grams)
(§3) C=(mean) time in days for control group to reach cutoff size (2 grams)
(§4) WC is the mean tumor weight of control group at time x
(§5) Wt is mean tumor weight of treated group at time x
(§6) % Regression=100 (Wo−Wi)/Wo; where Wo is the mean tumor weight for treated group at the initiation of treatment and Wi=the mean tumor weight for that group at time some time x after treatment. Many times the time x=24-48 hr after the final dose of therapy.
(§7) The log10 cell kill (gross)=[T−C value in days/(3.32)(Td)
Where T−C=time difference in days between Treated and Control tumors to reach a defined end point; and Td is the Tumor Volume Doubling time in days from the best-fit straight line from a log-linear growth plot of the control tumors exponential growth (100-800 mg range). The conversion of the T−C values to the net log10 tumor cell kill are provided by subtraction of the duration of the treatment period from the T−C value and then dividing by 3.32×Td.
The initial experiment, designated NMX-427, tested the effects of GW1843U89 at two different dose levels, 50 and 100 mg/kg/day×17 days. The control group received vehicle alone. […] There were two durable cures, one in each of the dose groups, which remained until termination of the experiment at day 57. The side-effect toxicity as measured by gross body weight loss was minimal in both drug-treated groups, and was greatest in […]. […]

The test system is the same in experiment [2]. The experiment is described as follows: HCT-8 xenograft, second study: liposomal GW1843U89 versus free drug (Table 26). In kind it is in vivo, Female Nu/Nu mice.
From the text: as §1, with “Groups consisting of 8 tumor-bearing mice each were administered weekly doses of experimental agents by IV bolus injection through the tail vein.” left out
as §2, §3, §4, §5, §6, §7
Where T−C=time difference in days between Treated and Control tumors to reach a defined end point; and Td is the Tumor Volume Doubling time in days from the best-fit straight line from a log-linear growth plot of the control tumors exponential growth (100-800 mg range). […]

The test system is the same in experiment [3]. Description: HCT-8 xenograft, NX1843 dose schedule study and combinations with 5-FU, NX211 and GW1843 (Table 27). In kind it is in vivo, nude mice. On the procedure: as §1, with “The human colon tumor xenograft model (HCT-8, thymidine kinase (TK)−/−) was obtained from Dr. Youcef M. Rustum (Roswell Park, Buffalo, N.Y.), and established in-house as a useful model for evaluation of thymidylate synthase inhibitors.” left out
as §2, §3, §4, §5
% Regression=100 (Wo−Wi)/Wo; where Wo is the mean tumor weight for treated group at the initiation of treatment and Wi=the mean tumor weight for that group at time some time x after treatment.
In addition to these dose groups the free drug was dosed at 100 mg/kg on days 1-5, and repeated for a second week.

Read-outs that look alike come from different tables or passages of the source.

Turning to `Cc1nc2ccc3ccc(CNc4ccc5c(c4)CN(C(CCC(=O)O)C(=O)O)C5=O)cc3c2c(=O)[nH]1` (stereo not drawn) [GW1843], the log cell kill in experiment [1] (50 mg/kg/day×17 days) was determined as 3.0; in experiment [1] (100 mg/kg/day×17 days) it was 3.3; in experiment [2] (25 mg/kg every day (total 350 mg/kg)) it was 1.5; in experiment [2] (50 mg/kg every day (total 700 mg/kg)), 3.5. For the same molecule, the durable cures result in experiment [1] (50 mg/kg/day×17 days) and in experiment [1] (100 mg/kg/day×17 days) was “one” throughout. The “tumor regression” value in experiment [2] (25 and 50 mg/kg every day) is listed as “no tumor regression occurred”. Further, the “% TGI” value in experiment [3] (100 mg/kg, QD1-5 × 2) came to 80%. In addition, in experiment [3] (100 mg/kg, QD1-5 × 2), the Cures stood at 0. Besides, the LCK in experiment [3] (100 mg/kg, QD1-5 × 2) was determined as 2.4. Further, the “% Regression day 22” value in experiment [3] (100 mg/kg, QD1-5 × 2, day 22) turned out to be 0%. The “log cell kill (LCK)” value in experiment [3] (iv, NX1843 25 mg/kg d1,8, 15 mg/kg QD(1,3,5)×2 or 7.5 mg/kg QD(1-5)×2, GW1843 100 mg/kg d1-5 ×2, 5FU 100 mg/kg d1,8, NX211 6 mg/kg d1,8, combinations at same doses) is on record as 2.4.
